In the experiment the target is Mcl-1 protein (UniProtKB Q07820) (Homo sapiens (Human), UniProt Q07820). The experiment can be described thus: Inhibition of Mcl-1 by the fluorescence polarisation assay (Example A, Method A). In kind it is binding. Conditions: fluorescence polarization assay. The procedure, abridged:
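Protein (5 nM) and fluorescein-tagged peptide tracer (1 nM) incubated with 11-point compound series for 2 h at room temperature in HEPES/NaCl/Tween 20 buffer, pH 7.4, 5% DMSO. Displacement read as decrease in polarisation; IC50 fitted by 4-parameter logistic, converted to Ki (cKi or eKi).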
(In general: Fluorescence polarisation rises when a labelled molecule tumbles more slowly, as on binding a larger partner.)

Sequence of Mcl-1 protein (Q07820 whole entry): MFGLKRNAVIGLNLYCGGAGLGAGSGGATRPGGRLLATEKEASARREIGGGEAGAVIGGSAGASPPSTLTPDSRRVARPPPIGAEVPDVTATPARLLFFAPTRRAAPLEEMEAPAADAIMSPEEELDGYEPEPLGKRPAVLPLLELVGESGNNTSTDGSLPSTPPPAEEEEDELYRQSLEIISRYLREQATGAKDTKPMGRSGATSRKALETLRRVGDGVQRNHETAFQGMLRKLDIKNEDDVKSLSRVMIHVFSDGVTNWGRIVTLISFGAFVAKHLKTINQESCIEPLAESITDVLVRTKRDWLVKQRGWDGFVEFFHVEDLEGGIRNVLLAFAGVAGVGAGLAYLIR

By Ki is commonly meant the equilibrium dissociation constant of an inhibitor or competing ligand from its target. Consider `O=C(O)[C@]1(Nc2cccc(Cl)c2)CC[C@]2(CC1)C(COCCc1ccccc1F)=Cc1ccccc12` [Example 410, (1s,4s)-4-(3-chloroanilino)-2′-{[2-(2-fluorophenyl)ethoxy]methyl}spiro[cyclohexane-1,1′-indene]-4-carboxylic acid], for which the Ki is 550 nM.

Consider `Cc1cccc(CCOCC2=Cc3ccccc3[C@]23CC[C@@](Nc2cccc(Cl)c2)(C(=O)O)CC3)c1` [Example 411, (1s,4s)-4-(3-chloroanilino)-2′-{[2-(3-methylphenyl)ethoxy]methyl}spiro[cyclohexane-1,1′-indene]-4-carboxylic acid], for which the Ki was 583 nM.

Consider `O=C(O)[C@]1(Nc2cccc(Cl)c2)CC[C@]2(CC1)C(COCCc1cccc(F)c1)=Cc1ccccc12` [Example 412, (1s,4s)-4-(3-chloroanilino)-2′-{[2-(3-fluorophenyl)ethoxy]methyl}spiro[cyclohexane-1,1′-indene]-4-carboxylic acid], for which the Ki was 473 nM.

Consider `O=C(O)[C@]1(Nc2cccc(Cl)c2)CC[C@]2(CC1)C(COCCc1ccc(F)cc1)=Cc1ccccc12` [Example 413, (1s,4s)-4-(3-chloroanilino)-2′-{[2-(4-fluorophenyl)ethoxy]methyl}spiro[cyclohexane-1,1′-indene]-4-carboxylic acid], for which the Ki amounted to 704 nM.

As to `COc1ccccc1CCOCC1=Cc2ccccc2[C@]12CC[C@@](Nc1cccc(Cl)c1)(C(=O)O)CC2` [Example 414, (1s,4s)-4-(3-chloroanilino)-2′-{[2-(2-methoxyphenyl)ethoxy]methyl}spiro[cyclohexane-1,1′-indene]-4-carboxylic acid], the Ki turned out to be 312 nM.

As to `Cc1ccccc1CCOCC1=Cc2ccccc2[C@]12CC[C@@](Nc1cccc(Cl)c1)(C(=O)O)CC2` [Example 415, (1s,4s)-4-(3-chloroanilino)-2′-{[2-(2-methylphenyl)ethoxy]methyl}spiro[cyclohexane-1,1′-indene]-4-carboxylic acid], the Ki came out at 365 nM.

Regarding `Cc1ccc(CCOCC2=Cc3ccccc3[C@]23CC[C@@](Nc2cccc(Cl)c2)(C(=O)O)CC3)cc1` [Example 416, (1s,4s)-4-(3-chloroanilino)-2′-{[2-(4-methylphenyl)ethoxy]methyl}spiro[cyclohexane-1,1′-indene]-4-carboxylic acid], the Ki came out at 623 nM.

As to `O=C(O)[C@]1(Nc2cccc(Cl)c2)CC[C@]2(CC1)C(COCCc1cccc(Cl)c1)=Cc1ccccc12` [Example 417, (1s,4s)-4-(3-chloroanilino)-2′-{[2-(3-chlorophenyl)ethoxy]methyl}spiro[cyclohexane-1,1′-indene]-4-carboxylic acid], the Ki worked out at 522 nM.

For `COc1cccc(CCOCC2=Cc3ccccc3[C@]23CC[C@@](Nc2cccc(Cl)c2)(C(=O)O)CC3)c1` [Example 418, (1s,4s)-4-(3-chloroanilino)-2′-{[2-(3-methoxyphenyl)ethoxy]methyl}spiro[cyclohexane-1,1′-indene]-4-carboxylic acid], the Ki worked out at 648 nM.

On to `O=C(O)[C@]1(Nc2cccc(Cl)c2)CC[C@]2(CC1)C(COCCc1ccccc1Cl)=Cc1ccccc12` [Example 419, (1s,4s)-4-(3-chloroanilino)-2′-{[2-(2-chlorophenyl)ethoxy]methyl}spiro[cyclohexane-1,1′-indene]-4-carboxylic acid], for which the Ki amounted to 300 nM.

`O=C(O)[C@]1(Nc2cccc(Cl)c2)CC[C@]2(CC1)C(COCCc1ccc(Cl)cc1)=Cc1ccccc12` [Example 420, (1s,4s)-4-(3-chloroanilino)-2′-{[2-(4-chlorophenyl)ethoxy]methyl}spiro[cyclohexane-1,1′-indene]-4-carboxylic acid]: the Ki stood at 1100 nM.

`COc1ccc(CCOCC2=Cc3ccccc3[C@]23CC[C@@](Nc2cccc(Cl)c2)(C(=O)O)CC3)cc1` [Example 421, (1s,4s)-4-(3-chloroanilino)-2′-{[2-(4-methoxyphenyl)ethoxy]methyl}spiro[cyclohexane-1,1′-indene]-4-carboxylic acid]: the Ki amounted to 793 nM.

On to `O=C(O)[C@]1(Nc2cccc(Cl)c2)CC[C@]2(CC1)C(CCCOc1ccccc1)=Cc1ccccc12` [Example 422, (1r,4r)-4-(3-chloroanilino)-2′-(3-phenoxypropyl)spiro[cyclohexane-1,1′-indene]-4-carboxylic acid], for which the Ki was determined as 95.9 nM.

Take `O=C(O)[C@]1(Nc2cccc(Cl)c2)CC[C@@]2(CC1)c1ccccc1CC2CCCOc1ccccc1` (stereo partly shown) [Example 423, (1r,4r)-4-(3-chloroanilino)-2′-(3-phenoxypropyl)-2′,3′-dihydrospiro[cyclohexane-1,1′-indene]-4-carboxylic acid]: the Ki stood at 224 nM.

For `O=C(O)[C@]1(Nc2cccc(Cl)c2)CC[C@@]2(CC1)c1ccccc1CC2CCCOc1ccccc1` (stereo partly shown) [Example 424, (1r,4r)-4-(3-chloroanilino)-2′-(3-phenoxypropyl)-2′,3′-dihydrospiro[cyclohexane-1,1′-indene]-4-carboxylic acid], the Ki is 184 nM.

Take `O=C(O)[C@]1(Nc2cccc(Cl)c2)CC[C@@]2(CC1)c1ccccc1CC2CCCOc1ccc(F)cc1` (stereo partly shown) [Example 425, (1r,4r)-4-(3-chloroanilino)-2′-[3-(4-fluorophenoxy)propyl]-2′,3′-dihydrospiro[cyclohexane-1,1′-indene]-4-carboxylic acid]: the Ki turned out to be 477 nM.

With `O=C(O)[C@]1(Nc2cccc(Cl)c2)CC[C@@]2(CC1)c1ccccc1CC2CCCOc1ccc2c(c1)OCO2` (stereo partly shown) [Example 428, (1r,4r)-2′-{3-[(2H-1,3-benzodioxol-5-yl)oxy]propyl}-4-(3-chloroanilino)-2′,3′-dihydrospiro[cyclohexane-1,1′-indene]-4-carboxylic acid], the Ki was 393 nM.

With `Nc1cc(Cl)c(OCCCC2Cc3ccccc3[C@]23CC[C@@](Nc2cccc(Cl)c2)(C(=O)O)CC3)c(Cl)c1` (stereo partly shown) [Example 429, (1r,4r)-2′-[3-(4-amino-2,6-dichlorophenoxy)propyl]-4-(3-chloroanilino)-2′,3′-dihydrospiro[cyclohexane-1,1′-indene]-4-carboxylic acid], the inhibition constant (Ki) was 165 nM.

With `O=C(O)[C@]1(Nc2cccc(Cl)c2)CC[C@@]2(CC1)c1ccccc1CC2CCCOc1cc(F)cc(Cl)c1` (stereo partly shown) [Example 430, (1r,4r)-4-(3-chloroanilino)-2′-[3-(3-chloro-5-fluorophenoxy)propyl]-2′,3′-dihydrospiro[cyclohexane-1,1′-indene]-4-carboxylic acid], the Ki amounted to 206 nM.

Turning to `O=C(O)[C@]1(Nc2cccc(Cl)c2)CC[C@@]2(CC1)c1ccccc1CC2CCCOc1ccccc1Cl` (stereo partly shown) [Example 431, (1r,4r)-4-(3-chloroanilino)-2′-[3-(2-chlorophenoxy)propyl]-2′,3′-dihydrospiro[cyclohexane-1,1′-indene]-4-carboxylic acid], the Ki amounted to 138 nM.

In the case of `O=C(O)[C@]1(Nc2cccc(Cl)c2)CC[C@@]2(CC1)c1ccccc1CC2CCCOc1ccncc1F` (stereo partly shown) [Example 432, (1r,4r)-4-(3-chloroanilino)-2′-{3-[(3-fluoropyridin-4-yl)oxy]propyl}-2′,3′-dihydrospiro[cyclohexane-1,1′-indene]-4-carboxylic acid], the Ki was 38.9 nM.

On to `O=C(O)[C@]1(Nc2cccc(Cl)c2)CC[C@@]2(CC1)c1ccccc1CC2CCCOc1n[nH]c2c1CCCC2` (stereo partly shown) [Example 433, (1r,4r)-4-(3-chloroanilino)-2′-{3-[(4,5,6,7-tetrahydro-1H-indazol-3-yl)oxy]propyl}-2′,3′-dihydrospiro[cyclohexane-1,1′-indene]-4-carboxylic acid], for which the Ki came out at 1750 nM.

The values are drawn from patent US20240150293A1, “SPIROCYCLOHEXANE DERIVATIVES, PHARMACEUTICAL COMPOSITIONS CONTAINING THEM AND THEIR USES AS ANTI-APOPTOTIC INHIBITORS” (LES LABORATOIRES SERVIER, priority 2021, published 2024).
